This is an account of results in patent US5514662A, “Use of amphotericin B derivatives as protease inhibitors” (priority 1991, dated 1996).

One series concerns Jurkat cells. As to the kind of experiment: Cell viability of Jurkat cells. The class given is cell-based, human. Conditions: concentrations above 100 μM. The text has this: Cell viability was estimated at the same time. […] It therefore appears that DABF-AmB inhibits the replication of HIV at doses which are not cytotoxic.
Another series has as its system HeLa-Ohio cells. The series can be described thus: Cytotoxicity in HeLa-Ohio cells. Type of series: cell-based, human. The following applies: 20 μM for 4 weeks.
In the next series the test system is CD4. The series can be described thus: Membrane expression of CD4 in HIV-1 infected Jurkat and CEM cells. The class given is cell-based, human. The following applies: 10 μM continuous, 8th day. The protocol: Membrane expression of CD4 and gp120 is measured by means of the monoclonal antibodies OKT4 (0,5 μg/ml), 110-4 (2 μg/ml) respectively, which are stained using a […].
The fluorescence is measured by means of a FACSTAR cell counter (BECTON DICKINSON, MOUNTAIN VIEW, Calif.). The results are expressed as mean fluorescence intensity.
The CD4-specific monoclonal antibody (OKT4 was bought from ORTHO PHARMACEUTICAL CORPORATION (Raritan, N.J.).
Immunofluorescence analyses are carried out on the 8th day of the infection in order to verify whether the inhibition of HIV replication by DABF-AmB results in 10 a reduced membrane expression of viral antigens.

Another series deals with LTR of HIV. As to the kind of experiment: Early phases of HIV infection: transactivation of LTR-LacZ in CD4 HeLa cells (blue colonies). The class given is cell-based, HIV-1. Conditions: 10 μM, 24 hours after infection. The protocol:
HeLa cells transfected with the CD4 gene and capable of being infected by HIV, carrying the bacterial gene LacZ placed under the control of the LTR of HIV ROCANCOURT et al., J. Virol., 64:2660-2668, (1990)!, were infected with HIV-1BRU. […] This detection was carried out after fixing the cells by incubating for one hour in-the presence of 5-bromo-4-chloro-3-indoyl-β-D-[…] and enzyme substrate.

A further series concerns HUT78 cells. As to the kind of experiment: Cytotoxicity in HUT78 cells. Type of series: cell-based.
The next series concerns chymotrypsin. The series can be described thus: Activity of DABF-AmB on various proteases: chymotrypsin. The following applies: 1 μM. Type of series: biochemical. The procedure:
(§1) DABF-AmB was tested, at a concentration of 1 μM, on various proteases (papain, chymotrypsin, kallicrein, leucocyte elastase, cathopsin D and recombinant protease p10) under conditions and in the presence of substrates appropriate for each of the proteases tested.

The target of the next series is papain (Carica papaya, UniProt P00784). As to the kind of experiment: Activity of DABF-AmB on various proteases: papain. Type of series: biochemical. Conditions: 1 μM. The protocol: as §1
The subject of a further series is leucocyte elastase. As to the kind of experiment: Activity of DABF-AmB on various proteases: leucocyte elastase. Type of series: biochemical. The following applies: 1 μM. The protocol: as §1
In the next series the test system is HIV LAV/BRU. As to the kind of experiment: Protection of CD4 cells in cultures of HIV-infected human thymocytes. The class given is cell-based, HIV-1. The procedure:
Human thymuses were obtained during corrective heart surgery operations on 3 to 7 year old children. The tissues were cut into fragments and the red blood cells were removed by treating with […] buffer. After washing in PBS buffer, cellular suspensions were prepared in an RPMI 1640 medium containing 10% of human serum type […]. Dead cells were removed by passing over a sterile nylon wool column.
The cells were infected with HIV LAV/BRU as indicated above in the general procedures, and then re-inoculated in the presence of PHA, of anti-CD2 or anti-CD3 antibodies and of IL2 and cultured for 10 days at a rate of 1×10^7 cells/ml. After 10 days, viral production was evaluated by measuring the RT activity in the supernatants and the distribution of CD4/CD8 was evaluated by double fluorescence flow cytometry by means of FITC-labelled anti-CD4 antibodies (OKT4) and phycoerythrin-labelled anti-CD8 antibodies (OKT8). DABF-AmB was added to the cultures immediately after infection and maintained during the entire duration of the culture.

Another series deals with HRV14. As to the kind of experiment: Direct virucidal effect on HRV14 (preincubation of virus). Type of series: cell-based. Conditions: HRV14 preincubated 5 hours at 37° C. The procedure:
When the suspension of HRV14 is preincubated at 37° C. in the presence of DABF-AmB for 5 hours, no inhibition of the cytopathogenic effect is observed compared with a control suspension incubated under the same conditions in the absence of DABF-AmB.

A further series concerns viral antigen p24. As to the kind of experiment: Secretion of p24 in HIV-1 infected PBMCs. Type of series: cell-based. Conditions: Human immunodeficiency virus 1, PBMC, read-out: inhibition of synthesis of p24. The procedure: The T cells (Jurkat and CEM) used are very permissive to HIV infection. They are cultured in RPMI 1640 medium supplemented with 10% foetal calf serum, 2 mM of glutamine and a mixture of penicillin and streptomycin. The peripheral blood mononuclear cells are obtained from blood from healthy donors, isolated on a Ficoll Hypaque gradient and stimulated with 10 μg/ml of phytohaemagglutinin A (PHA), for two days, in RPMI 1640 medium supplemented, prior to the infection by HIV, with amikacin and vancomycin (10 mg/ml), polybrene (1 mg/ml) and anti-interferon gamma serum (5 U/ml). After infection, the PBMCs are cultured (10^5 per well) in flat-bottomed 96-well plates in the same RPMI 1640 medium (200 μl per well).
The PBMCs cells (2×10^6 /ml) are infected with the same viruses and under the same conditions as the Jurkat or CEM cells. […]
The viral antigen p24 was quantified in the infected-cell supernatant by radioimmunological assay using the procedure recommended by the manufacturer (ABBOTT, Diagnostics Division).
PBMCs isolated from healthy individuals are infected with HIV-1. The production of antigen p24 as well as the reverse transcriptase activity can be detected in the supernatants of cultures infected 3 days after the infection. […]
The effect of DABF-AmB on the reverse transcriptase activity and on the secretion of p24 is evaluated on the 6th day.

papain, sequence (P00784 134-345): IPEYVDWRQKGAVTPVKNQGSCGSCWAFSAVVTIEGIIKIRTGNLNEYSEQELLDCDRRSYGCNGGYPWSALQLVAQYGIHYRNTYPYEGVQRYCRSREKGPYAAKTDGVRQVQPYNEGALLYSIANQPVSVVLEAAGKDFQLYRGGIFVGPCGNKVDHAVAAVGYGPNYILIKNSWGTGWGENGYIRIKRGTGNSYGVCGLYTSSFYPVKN

As for `C[C@@H]1[C@H](O)[C@@H](C)/C=C/C=C/C=C/C=C/C=C/C=C/C=C/[C@H](O[C@@H]2O[C@H](C)[C@@H](O)[C@H](NCC(=O)[C@@H](O)[C@@H]3OC(c4ccccc4)OC[C@H]3O)[C@@H]2O)C[C@@H]2O[C@](O)(C[C@@H](O)C[C@@H](O)[C@H](O)CC[C@@H](O)C[C@@H](O)CC(=O)O[C@H]1C)C[C@H](O)[C@H]2C(=O)O` (stereo partly drawn) [DABF-AmB, 1-deoxy-1-amino-4,6-O-benzylidene-D-fructosyl-AmB], the cytotoxic effect entry in the series on Jurkat cells and in the series with HeLa-Ohio cells was “no cytotoxic effect” throughout. In addition, in the series with CD4, the “level of the membrane antigen CD4” value is listed as “increases until it reaches that for the uninfected cells”. The “inhibition of appearance of blue colonies” value with LTR of HIV is listed as “completely inhibits”. Besides, the cytotoxicity result in the series with HUT78 cells (50 μM, HIV2 table, 3 days) is given as “low cytotoxicity”; in the series with HUT78 cells (50 μM, SIV table, 3 days), “low cytotoxicity”; in the series on HUT78 cells (100 μM, HIV2 table, 3 days), “high cytotoxicity”; in the series with HUT78 cells (100 μM, HIV2 table, 5 days), “cytotoxicity”; in the series on HUT78 cells (100 μM, SIV table, 3 days) it was “high cytotoxicity”; in the series on HUT78 cells (100 μM, SIV table, 5 days) it was “cytotoxicity”. The inhibition of chymotrypsin result with chymotrypsin is “does not inhibit”. In addition, the inhibition of papain result against papain is “does not inhibit”. In addition, the “inhibition of leucocyte elastase” value in the series with leucocyte elastase was “inhibits”. For the same compound, the “RT activity in the supernatants of infected thymocytes” value with HIV LAV/BRU (10 days) is reported as “decrease in RT activity”. Also, in the series on HIV LAV/BRU (in proportion to the concentration), the “CD4+ cells in infected thymocyte cultures” value is “preservation or the reappearance of CD4+ cells”. Also, in the series on HIV LAV/BRU (infected cultures), the “infection of CD4+ thymocytes and distribution of subpopulations of thymic cells” value is “inhibits the infection of CD4+ thermocytes by HIV and restores a normal distribution of the subpopulations of thymic cells”. For the same compound, the “inhibition of the cytopathogenic effect after preincubation of virus (direct virucidal effect)” value in the series on HRV14 is listed as “no direct virucidal effect”. Moreover, the inhibition (as a rule, the relative decrease from the control value, in per cent) at 10 µM in the series on viral antigen p24 was 88 ± 6%.
